This assay deals with T1, Recombinant human p70S6K kinase (Homo sapiens, UniProt P23443).
T1 construct: purchased ThermoFisher Scientific PV3815
Briefly: S6K Enzymatic Inhibition Assay (HotSpot kinase assay; called S6K binding assay in Table 2). It counts as biochemical. The settings on record: IC50 class. The procedure:
Enzymatic activity was determined using a commercial HotSpot kinase assay. Recombinant human p70S6K kinase was purchased from ThermoFisher Scientific (cat #PV3815). The substrate S6K/RSK2 peptide 2 was synthesized at Genscript [Piscataway, NJ]. In brief, the substrate was prepared in the reaction buffer [20 mM Hepes (pH 7.5), 10 mM MgCl2, 1 mM EGTA, 0.02% Brij35, 0.02 mg/mL BSA, 0.1 mM Na3VO4, 2 mM DTT, 1% DMSO]. Testing compounds were dissolved in 100% DMSO and a serial dilution was conducted in DMSO. The kinase at final concentration of 3 nM was added into the substrate solution and gently mixed. Test compounds were delivered at the appropriate concentrations into the kinase reaction mixture by Echo550, and incubated for 20 minutes at room temperature. ^33P-ATP (Specific activity 10 μCi/μL) was added into the reaction mixture to initiate the reaction. Assay plates were incubated for 2 hours at room temperature. The radioactivity was detected by filter-binding method. Kinase activity data is expressed as the percent remaining kinase activity in test samples compared to vehicle (DMSO) reactions. IC50 curves were plotted and IC50 values were calculated using the GraphPad Prism 4 program based on a sigmoidal dose-response equation.

A value given as a limit tells only on which side of the number the result lay.

T1 sequence (P23443 whole entry): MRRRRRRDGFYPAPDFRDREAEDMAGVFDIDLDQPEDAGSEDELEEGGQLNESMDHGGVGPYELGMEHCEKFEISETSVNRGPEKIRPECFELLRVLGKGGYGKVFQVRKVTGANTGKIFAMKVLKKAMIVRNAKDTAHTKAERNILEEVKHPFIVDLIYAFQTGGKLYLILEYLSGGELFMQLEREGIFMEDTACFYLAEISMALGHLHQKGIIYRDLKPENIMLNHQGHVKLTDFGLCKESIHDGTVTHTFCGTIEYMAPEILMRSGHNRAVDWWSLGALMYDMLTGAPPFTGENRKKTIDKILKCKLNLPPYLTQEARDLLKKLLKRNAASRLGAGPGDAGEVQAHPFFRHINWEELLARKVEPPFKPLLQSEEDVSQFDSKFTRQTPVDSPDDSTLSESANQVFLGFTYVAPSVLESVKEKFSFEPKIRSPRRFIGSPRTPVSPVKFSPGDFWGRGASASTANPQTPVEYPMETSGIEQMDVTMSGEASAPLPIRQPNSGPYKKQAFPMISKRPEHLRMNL

On to `CC(c1cccc(C(F)(F)F)c1)n1cc(-c2ncnc(N)c2-c2ccc(Cl)cc2)cn1` (racemic) [Example 3, (±)-5-(p-Chlorophenyl)-6-(1-{1-[m-(trifluoromethyl)phenyl]ethyl}-1H-pyrazol-4-yl)-4-pyrimidinylamine], for which the IC50 fell in the range of 50 to 500 nM. With `Nc1ncnc(-c2cnn(C(CO)c3ccccc3)c2)c1-c1ccc(Cl)cc1` (racemic) [Example 5, (±)-2-{4-[6-Amino-5-(p-chlorophenyl)-4-pyrimidinyl]-1H-pyrazol-1-yl}-2-phenylethanol], the IC50 was less than 50 nM. Turning to `NCC(c1ccccc1)n1cc(-c2ncnc(N)c2-c2ccc(Cl)cc2)cn1` (racemic) [Example 6, (±)-6-[1-(2-Amino-1-phenylethyl)-1H-pyrazol-4-yl]-5-(p-chlorophenyl)-4-pyrimidinamine], the IC50 is less than 50 nM. To `NC(=O)C(c1ccccc1)n1cc(-c2ncnc(N)c2-c2ccc(Cl)cc2)cn1` (racemic) [Example 8, (±)-{4-[6-Amino-5-(p-chlorophenyl)-4-pyrimidinyl]-1H-pyrazol-1-yl}phenylacetamide] belongs less than 50 nM. In the case of `CN(C)C(=O)C(c1ccccc1)n1cc(-c2ncnc(N)c2-c2ccc(Cl)cc2)cn1` (racemic) [Example 9, (±)-N,N-Dimethyl{4-[6-amino-5-(p-chlorophenyl)-4-pyrimidinyl]-1H-pyrazol-1-yl}phenylacetamide], the IC50 lay within 50 to 500 nM. To `Nc1ncnc(-c2cnn(Cc3ccccc3)c2)c1-c1ccc(Cl)cc1` [Example 1, 6-(1-Benzyl-1H-pyrazol-4-yl)-5-(p-chlorophenyl)-4-pyrimidinylamine] belongs less than 50 nM; to `Cn1cc(-c2ncnc(N)c2-c2ccc(Cl)cc2)cn1` [Example 2, 5-(p-Chlorophenyl)-6-(1-methyl-1H-pyrazol-4-yl)-4-pyrimidinylamine], 50 to 500 nM. With `Nc1ncnc(-c2cnn(Cc3ccc(C(F)(F)F)cc3)c2)c1-c1ccc(Cl)cc1` [Example 4, 5-(p-Chlorophenyl)-6-(1-{[p-(trifluoromethyl)phenyl]methyl}-1H-pyrazol-4-yl)-4-pyrimidinylamine] the figure was less than 50 nM; with `C=C(c1ccccc1)n1cc(-c2ncnc(N)c2-c2ccc(Cl)cc2)cn1` [Example 7, 5-(p-Chlorophenyl)-6-[1-(1-phenylethenyl)-1H-pyrazol-4-yl]-4-pyrimidinylamine], less than 50 nM.

As for `Nc1ncnc(-c2cnn(-c3ccccc3)c2)c1-c1ccc(Cl)cc1` [Example 10, 5-(p-Chlorophenyl)-6-(1-phenyl-1H-pyrazol-4-yl)-4-pyrimidinylamine], the IC50 lay in the range of 50 to 500 nM. To `Cc1ccccc1-n1cc(-c2ncnc(N)c2-c2ccc(Cl)cc2)cn1` [Example 11, 5-(p-Chlorophenyl)-6-[1-(o-tolyl)-1H-pyrazol-4-yl]-4-pyrimidinylamine] belongs 50 to 500 nM.

Turning to `Nc1ncnc(-c2cnn(-c3cccc(Cl)c3)c2)c1-c1ccc(Cl)cc1` [Example 12, 5-(p-Chlorophenyl)-6-[1-(m-chlorophenyl)-1H-pyrazol-4-yl]-4-pyrimidinylamine], the concentration for half-maximal inhibition (IC50) is 500 to 10000 nM. With `Nc1ncnc(-c2cnn(-c3cccc(C(F)(F)F)c3)c2)c1-c1ccc(Cl)cc1` [Example 13, 5-(p-Chlorophenyl)-6-{1-[m-(trifluoromethyl)phenyl]-1H-pyrazol-4-yl}-4-pyrimidinylamine] the figure was 500 to 10000 nM; with `Nc1ncnc(-c2cnn(C3CCCCO3)c2)c1-c1ccc(Cl)cc1` (stereo not shown) [Example 14, 5-(p-Chlorophenyl)-6-[1-(tetrahydro-2H-pyran-2-yl)-1H-pyrazol-4-yl]-4-pyrimidinylamine], 500 to 10000 nM. To `Nc1ncnc(-c2cnn(Cc3cccc(F)c3)c2)c1-c1ccc(Cl)cc1` [Example 15, 5-(p-Chlorophenyl)-6-{1-[(m-fluorophenyl)methyl]-1H-pyrazol-4-yl}-4-pyrimidinylamine] belongs less than 50 nM; to `Nc1ncnc(-c2cnn(Cc3ccc(Cl)cc3)c2)c1-c1ccc(Cl)cc1` [Example 16, 5-(p-Chlorophenyl)-6-{1-[(p-chlorophenyl)methyl]-1H-pyrazol-4-yl}-4-pyrimidinylamine], less than 50 nM; to `Nc1ncnc(-c2cnn(Cc3ccccc3C(F)(F)F)c2)c1-c1ccc(Cl)cc1` [Example 17, 5-(p-Chlorophenyl)-6-(1-{[o-(trifluoromethyl)phenyl]methyl}-1H-pyrazol-4-yl)-4-pyrimidinylamine], 50 to 500 nM. Take `Nc1ncnc(-c2cnn(Cc3ccc(F)cc3)c2)c1-c1ccc(Cl)cc1` [Example 18, 5-(p-Chlorophenyl)-6-{1-[(p-fluorophenyl)methyl]-1H-pyrazol-4-yl}-4-pyrimidinylamine]: the half-inhibitory concentration (IC50) was less than 50 nM. With `Nc1ncnc(-c2cnn(Cc3ccc(F)cc3F)c2)c1-c1ccc(Cl)cc1` [Example 19, 5-(p-Chlorophenyl)-6-{1-[(2,4-difluorophenyl)methyl]-1H-pyrazol-4-yl}-4-pyrimidinylamine] the figure was less than 50 nM; with `Nc1ncnc(-c2cnn(Cc3ccc(OC(F)(F)F)cc3)c2)c1-c1ccc(Cl)cc1` [Example 20, 5-(p-Chlorophenyl)-6-{1-[(p-trifluoromethoxyphenyl)methyl]-1H-pyrazol-4-yl}-4-pyrimidinylamine], less than 50 nM; with `Nc1ncnc(-c2cnn(Cc3ccccc3F)c2)c1-c1ccc(Cl)cc1` [Example 21, 5-(p-Chlorophenyl)-6-{1-[(o-fluorophenyl)methyl]-1H-pyrazol-4-yl}-4-pyrimidinylamine], less than 50 nM. To `Nc1ncnc(-n2cc(C(=O)c3ccccc3)cn2)c1-c1ccc(Cl)cc1` [Example 22, {1-[6-Amino-5-(p-chlorophenyl)-4-pyrimidinyl]-1H-pyrazol-4-yl}phenylmethanone] belongs 500 to 10000 nM; to `Nc1ncnc(-n2cc(Cc3ccccc3)cn2)c1-c1ccc(Cl)cc1` [Example 23, 6-(4-Benzyl-1H-pyrazol-1-yl)-5-(p-chlorophenyl)-4-pyrimidinylamine], 50 to 500 nM. To `COc1ccc(-c2c(N)ncnc2-c2cnn(Cc3ccc(C(F)(F)F)cc3)c2)cc1` [Example 24, 5-(p-Methoxyphenyl)-6-(1-{[p-(trifluoromethyl)phenyl]methyl}-1H-pyrazol-4-yl)-4-pyrimidinylamine] belongs less than 50 nM. As to `Nc1ncnc(-c2cnn(Cc3ccc(C(F)(F)F)cc3)c2)c1-c1ccc(F)cc1` [Example 25, 5-(p-Fluorophenyl)-6-(1-{[p-(trifluoromethyl)phenyl]methyl}-1H-pyrazol-4-yl)-4-pyrimidinylamine], the IC50 is less than 50 nM. With `CS(=O)(=O)c1ccc(-c2c(N)ncnc2-c2cnn(Cc3ccc(C(F)(F)F)cc3)c2)cc1` [Example 26, 5-[p-(Methylsulfonyl)phenyl]-6-(1-{[p-(trifluoromethyl)phenyl]methyl}-1H-pyrazol-4-yl)-4-pyrimidinylamine] the figure was 500 to 10000 nM.

Turning to `Nc1ncnc(-c2cnn(Cc3ccc(C(F)(F)F)cc3)c2)c1-c1ccc(Cl)c(F)c1` [Example 27, 5-(4-Chloro-3-fluorophenyl)-6-(1-{[p-(trifluoromethyl)phenyl]methyl}-1H-pyrazol-4-yl)-4-pyrimidinylamine], the IC50 is less than 50 nM.

On to `Nc1ncnc(-c2cnn(Cc3ccc(C(F)(F)F)cc3)c2)c1-c1ccc(Cl)c(Cl)c1` [Example 28, 5-(3,4-Dichlorophenyl)-6-(1-{[p-(trifluoromethyl)phenyl]methyl}-1H-pyrazol-4-yl)-4-pyrimidinylamine], for which the half-maximal inhibitory concentration (IC50) is 500 to 10000 nM. As to `COc1cc(-c2c(N)ncnc2-c2cnn(Cc3ccc(C(F)(F)F)cc3)c2)ccc1Cl` [Example 29, 5-(4-Chloro-3-methoxyphenyl)-6-(1-{[p-(trifluoromethyl)phenyl]methyl}-1H-pyrazol-4-yl)-4-pyrimidinylamine], the IC50 lay in the range of 500 to 10000 nM.

On to `COc1ccc(-c2c(N)ncnc2-c2cnn(Cc3ccc(C(F)(F)F)cc3)c2)cc1Cl` [Example 30, 5-(3-Chloro-4-methoxyphenyl)-6-(1-{[p-(trifluoromethyl)phenyl]methyl}-1H-pyrazol-4-yl)-4-pyrimidinylamine], for which the half-inhibitory concentration (IC50) lay within 500 to 10000 nM. To `Nc1ncnc(-c2cnn(Cc3ccc(C(F)(F)F)cc3)c2)c1-c1ccc(F)c(F)c1` [Example 31, 5-(3,4-Difluorophenyl)-6-(1-{[p-(trifluoromethyl)phenyl]methyl}-1H-pyrazol-4-yl)-4-pyrimidinylamine] belongs less than 50 nM; to `COc1ccc(-c2c(N)ncnc2-c2cnn(Cc3ccc(C(F)(F)F)cc3)c2)cc1F` [Example 32, 5-(3-Fluoro-4-methoxyphenyl)-6-(1-{[p-(trifluoromethyl)phenyl]methyl}-1H-pyrazol-4-yl)-4-pyrimidinylamine], less than 50 nM.

On to `COc1cc(-c2c(N)ncnc2-c2cnn(Cc3ccc(C(F)(F)F)cc3)c2)ccc1F` [Example 33, 5-(4-Fluoro-3-methoxyphenyl)-6-(1-{[p-(trifluoromethyl)phenyl]methyl}-1H-pyrazol-4-yl)-4-pyrimidinylamine], for which the IC50 was in the range of 500 to 10000 nM. To `Nc1ncnc(-c2cnn(Cc3ccc(C(F)(F)F)cc3)c2)c1-c1ccc(OC(F)(F)F)cc1` [Example 34, 5-(p-Trifluoromethoxyphenyl)-6-(1-{[p-(trifluoromethyl)phenyl]methyl}-1H-pyrazol-4-yl)-4-pyrimidinylamine] belongs 500 to 10000 nM.
